Data published in ChEMBL document CHEMBL4823309, “The Potential of c-KIT Kinase inhibitors in Cancer Treatment” (ACS Med Chem Lett, 2021).

assay: Inhibition of C-KIT V654A/560-576 deletion mutant in human GIST-430/654 cells assessed as reduction in c-Kit autophosphorylation at […] residue incubated for 45 mins by Luminex bead based assay; type: cell-based; conditions: GIST-430/654, 0.75 h

Row | Compound | IC50 [nM]
1 | CNC1CN(c2ccn3c(-c4cc(NCc5ccc(-c6cnn(C)c6)cc5)ncn4)cnc3c2)C1 | 140
2 | Cn1cc(-c2ccc(CNc3cc(-c4cnc5cc(OCCN6CCC[C@@H]7OCC[C@@H]76)ccn45)ncn3)cc2)cn1 | 100
3 | Cn1cc(-c2ccc(CNc3cc(-c4cnc5cc(OC6CCOC6)ccn45)ncn3)cc2)cn1 (configuration not stated) | 270
4 | c1ccn2c(-c3cc(NCc4ccc(-n5cccn5)cc4)ncn3)cnc2c1 | 190
5 | Cn1cc(-c2ccc(CNc3cc(-c4cnc5cc(CCN6CCN(C7COC7)CC6)ccn45)ncn3)cc2)cn1 | 330

Compounds with a lower IC50, results first:

Row | IC50 [nM] | Compound
6 | 45 | Cn1ncc(-c2ccc(CNc3cc(-c4cnc5cc(OCCCN6CCCC6)ccn45)ncn3)cc2)n1
7 | 55 | COc1ccn2c(-c3cc(NCc4ccc(-c5cnn(C)c5)cc4)ncn3)cnc2c1
8 | 39 | COCCN1CCC(COc2ccn3c(-c4cc(NCc5ccc(-c6cnn(C)n6)cc5)ncn4)cnc3c2)CC1
9 | 78 | COc1ccn2c(-c3cc(NCc4ccc(-c5cnn(C)n5)cc4)ncn3)cnc2c1
10 | 74 | Cc1nc(-c2ccc(CNc3cc(-c4cnc5cc(OCCO)ccn45)ncn3)cc2)co1
11 | 40 | Cn1ncc(-c2ccc(CNc3cc(-c4cnc5cc(OCCN6CC7(COC7)C6)ccn45)ncn3)cc2)n1
12 | 61 | CN1CC(COc2ccn3c(-c4cc(NCc5ccc(-c6cnn(C)c6)cc5)ncn4)cnc3c2)C1
